Assay results as given in ChEMBL document CHEMBL1201862, “PubChem BioAssay data set” (2004).
Calls of active or inactive are those of the source.

Key:
[1] = cytotoxicity in HEK-293T cells, dose response, cytotoxicity control for BCR NF-kB inhibitor project, luminescence, B-cell screen hits (AID 489021); assay type: functional, cell-based;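 note: HEK-293T cells carrying an NF-kB luciferase reporter; cells exposed to compound for about 14 hours before viability readout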
[2] = target: T1, High affinity choline transporter 1 (Homo sapiens, UniProt Q9GZV3); assay: CHT inhibitors, dose response, cell-based, 5-point CRC, membrane potential dye (AID 504840); assay type: functional
T1 sequence (Q9GZV3 whole entry): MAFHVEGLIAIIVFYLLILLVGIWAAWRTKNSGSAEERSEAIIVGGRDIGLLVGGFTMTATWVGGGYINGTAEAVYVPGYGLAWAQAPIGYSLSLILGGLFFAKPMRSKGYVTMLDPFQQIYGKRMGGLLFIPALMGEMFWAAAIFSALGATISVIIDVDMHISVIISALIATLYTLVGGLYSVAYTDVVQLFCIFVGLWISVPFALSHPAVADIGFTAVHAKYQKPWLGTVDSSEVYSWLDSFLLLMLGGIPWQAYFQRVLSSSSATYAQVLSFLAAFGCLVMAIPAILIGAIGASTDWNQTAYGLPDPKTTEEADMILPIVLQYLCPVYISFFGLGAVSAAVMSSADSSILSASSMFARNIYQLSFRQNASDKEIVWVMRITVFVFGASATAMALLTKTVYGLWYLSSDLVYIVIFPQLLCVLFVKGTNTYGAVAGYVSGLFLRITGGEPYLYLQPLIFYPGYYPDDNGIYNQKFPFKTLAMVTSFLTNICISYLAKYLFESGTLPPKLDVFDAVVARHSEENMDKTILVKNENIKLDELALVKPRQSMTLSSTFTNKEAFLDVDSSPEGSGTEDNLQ

INS1 = assay: beta cell apoptosis inhibitors, cytokine rescue, dose response, luminescence, retest (AID 449756); assay type: functional, cell-based; conditions: Rattus norvegicus;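 note: cell death triggered by IL-1 beta plus TNF-alpha plus IFN-gamma mixture; protective hits raise ATP signal compared with cytokine alone wells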
Galanin receptor type 3 = target: T2, Galanin receptor type 3 (Homo sapiens, UniProt O60755); assay: Fluorescence-based cell-based primary high throughput dose response assay to identify antagonists of the Galanin Receptor 3 (GalR3).; assay type: functional
T2 sequence (O60755 whole entry): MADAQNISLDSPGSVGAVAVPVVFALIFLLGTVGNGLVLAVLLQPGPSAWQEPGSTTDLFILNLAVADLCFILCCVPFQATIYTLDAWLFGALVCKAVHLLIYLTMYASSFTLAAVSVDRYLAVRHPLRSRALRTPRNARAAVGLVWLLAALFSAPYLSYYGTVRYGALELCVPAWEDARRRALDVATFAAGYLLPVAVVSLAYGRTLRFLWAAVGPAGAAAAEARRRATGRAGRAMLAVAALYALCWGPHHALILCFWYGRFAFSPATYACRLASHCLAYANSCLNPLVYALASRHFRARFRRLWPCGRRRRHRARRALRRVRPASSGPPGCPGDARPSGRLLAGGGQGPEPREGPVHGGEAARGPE

cells = assay type: functional, cell-based; conditions: HEK-CNG
[3] = ZM109 Env clade C HIV-1 fusion inhibitors, dose response, HeLa effector, CEM target cells, luciferase, cherry-pick (AID 652058); assay type: functional, cell-based
[4] = inhibitors of clade B AD8 Env fusion, dose response, cell-based, cherry-pick (AID 652062); assay type: functional;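 note: luciferase signal from cell-cell fusion driven by HIV-1 clade B AD8 Env; potency is for inhibitors of fusion seen as a drop in luminescence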
[5] = target: COUP transcription factor 2 (Homo sapiens, UniProt P24468); assay: Luminescence-based cell-based high throughput dose response assay to identify inhibitors of COUP-TFII (NR2F2).; assay type: functional;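 note: HEK293 cells transiently cotransfected with COUP-TFII expression vector and reporter; luciferase reporter luminescence driven by COUP-TFII from the pX2-168 reporter plasmid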
[6] = HepG2 cell cytotoxicity, dose response, cytotoxicity control, ATP luminescence, cherry-pick, activator set 2 (AID 1053143); assay type: functional, cell-based
[7] = target: T3, Oxysterols receptor LXR-beta (Homo sapiens, UniProt P55055); assay type: functional, cell-based;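 note: agonist activity at LXR measured by a cell-based luminescence readout across a dose range, run as a counterscreen for daf-12 agonists; HEK293 cells with Gal4-LXR fusion and GAL4-driven luciferase reporter; potency for activation of Gal4-LXR reporter so compounds are agonists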
T3 sequence (P55055 whole entry): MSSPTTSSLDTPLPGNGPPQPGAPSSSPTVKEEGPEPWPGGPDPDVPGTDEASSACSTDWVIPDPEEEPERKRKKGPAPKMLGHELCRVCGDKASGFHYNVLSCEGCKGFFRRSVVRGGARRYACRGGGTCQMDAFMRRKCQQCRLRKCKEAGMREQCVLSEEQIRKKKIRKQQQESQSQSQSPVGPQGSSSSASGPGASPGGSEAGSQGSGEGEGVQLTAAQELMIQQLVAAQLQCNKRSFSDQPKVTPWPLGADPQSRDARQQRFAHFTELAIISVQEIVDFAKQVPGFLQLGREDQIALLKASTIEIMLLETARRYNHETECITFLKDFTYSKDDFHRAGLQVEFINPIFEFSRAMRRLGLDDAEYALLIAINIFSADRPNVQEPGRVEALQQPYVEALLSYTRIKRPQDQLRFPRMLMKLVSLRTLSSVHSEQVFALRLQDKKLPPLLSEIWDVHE

Nonstructural protein 1 = Nonstructural protein 1 (Influenza A virus, UniProt Q194T2); assay type: functional, Influenza A virus (A/California/07/2009(H1N1))
[8] = HeLa cell cytotoxicity, dose response, cytotoxicity control for MgcRacGAP inhibitor project (AID 624300); assay type: functional
[9] = target: T4, Rac GTPase-activating protein 1 (Homo sapiens, UniProt Q9H0H5); assay: MgcRacGAP GTPase-activating activity inhibitors, confirmation, biochemical, ADP Hunter fluorescence, primary and confirmatory (AID 624330); assay type: functional
T4 sequence (Q9H0H5 whole entry): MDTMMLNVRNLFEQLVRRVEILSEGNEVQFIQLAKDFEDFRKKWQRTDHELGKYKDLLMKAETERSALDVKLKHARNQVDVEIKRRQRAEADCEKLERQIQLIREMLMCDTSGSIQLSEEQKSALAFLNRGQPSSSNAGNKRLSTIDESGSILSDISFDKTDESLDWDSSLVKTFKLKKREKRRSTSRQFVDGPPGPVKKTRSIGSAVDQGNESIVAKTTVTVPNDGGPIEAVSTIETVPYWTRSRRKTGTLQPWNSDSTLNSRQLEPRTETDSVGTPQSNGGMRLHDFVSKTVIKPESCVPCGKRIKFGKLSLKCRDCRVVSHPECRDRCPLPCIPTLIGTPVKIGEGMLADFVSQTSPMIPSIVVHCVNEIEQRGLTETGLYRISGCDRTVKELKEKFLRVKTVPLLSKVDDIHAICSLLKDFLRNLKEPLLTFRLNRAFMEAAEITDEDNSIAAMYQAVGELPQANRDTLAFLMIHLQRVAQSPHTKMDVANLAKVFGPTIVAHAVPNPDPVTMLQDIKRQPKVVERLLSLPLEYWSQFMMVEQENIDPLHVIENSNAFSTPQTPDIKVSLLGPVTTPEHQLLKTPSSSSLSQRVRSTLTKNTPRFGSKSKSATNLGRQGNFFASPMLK

[10] = target: T5, DNA repair protein RAD52 homolog (Homo sapiens, UniProt P43351); assay type: functional, biochemical
T5 sequence (P43351 whole entry): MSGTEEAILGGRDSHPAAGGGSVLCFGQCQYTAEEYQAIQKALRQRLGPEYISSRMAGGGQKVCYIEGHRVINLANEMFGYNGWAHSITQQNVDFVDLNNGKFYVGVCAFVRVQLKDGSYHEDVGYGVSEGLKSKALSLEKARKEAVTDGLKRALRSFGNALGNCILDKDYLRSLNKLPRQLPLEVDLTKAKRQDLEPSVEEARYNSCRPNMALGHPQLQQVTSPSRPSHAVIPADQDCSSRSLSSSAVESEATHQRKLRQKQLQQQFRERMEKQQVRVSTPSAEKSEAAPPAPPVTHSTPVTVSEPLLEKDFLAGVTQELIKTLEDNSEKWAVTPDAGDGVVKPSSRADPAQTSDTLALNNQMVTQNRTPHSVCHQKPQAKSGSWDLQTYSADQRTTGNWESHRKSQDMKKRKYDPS

[11] = target: T6, Histone-lysine N-methyltransferase NSD2 (Homo sapiens, UniProt O96028); assay type: biochemical
T6 sequence (O96028 whole entry): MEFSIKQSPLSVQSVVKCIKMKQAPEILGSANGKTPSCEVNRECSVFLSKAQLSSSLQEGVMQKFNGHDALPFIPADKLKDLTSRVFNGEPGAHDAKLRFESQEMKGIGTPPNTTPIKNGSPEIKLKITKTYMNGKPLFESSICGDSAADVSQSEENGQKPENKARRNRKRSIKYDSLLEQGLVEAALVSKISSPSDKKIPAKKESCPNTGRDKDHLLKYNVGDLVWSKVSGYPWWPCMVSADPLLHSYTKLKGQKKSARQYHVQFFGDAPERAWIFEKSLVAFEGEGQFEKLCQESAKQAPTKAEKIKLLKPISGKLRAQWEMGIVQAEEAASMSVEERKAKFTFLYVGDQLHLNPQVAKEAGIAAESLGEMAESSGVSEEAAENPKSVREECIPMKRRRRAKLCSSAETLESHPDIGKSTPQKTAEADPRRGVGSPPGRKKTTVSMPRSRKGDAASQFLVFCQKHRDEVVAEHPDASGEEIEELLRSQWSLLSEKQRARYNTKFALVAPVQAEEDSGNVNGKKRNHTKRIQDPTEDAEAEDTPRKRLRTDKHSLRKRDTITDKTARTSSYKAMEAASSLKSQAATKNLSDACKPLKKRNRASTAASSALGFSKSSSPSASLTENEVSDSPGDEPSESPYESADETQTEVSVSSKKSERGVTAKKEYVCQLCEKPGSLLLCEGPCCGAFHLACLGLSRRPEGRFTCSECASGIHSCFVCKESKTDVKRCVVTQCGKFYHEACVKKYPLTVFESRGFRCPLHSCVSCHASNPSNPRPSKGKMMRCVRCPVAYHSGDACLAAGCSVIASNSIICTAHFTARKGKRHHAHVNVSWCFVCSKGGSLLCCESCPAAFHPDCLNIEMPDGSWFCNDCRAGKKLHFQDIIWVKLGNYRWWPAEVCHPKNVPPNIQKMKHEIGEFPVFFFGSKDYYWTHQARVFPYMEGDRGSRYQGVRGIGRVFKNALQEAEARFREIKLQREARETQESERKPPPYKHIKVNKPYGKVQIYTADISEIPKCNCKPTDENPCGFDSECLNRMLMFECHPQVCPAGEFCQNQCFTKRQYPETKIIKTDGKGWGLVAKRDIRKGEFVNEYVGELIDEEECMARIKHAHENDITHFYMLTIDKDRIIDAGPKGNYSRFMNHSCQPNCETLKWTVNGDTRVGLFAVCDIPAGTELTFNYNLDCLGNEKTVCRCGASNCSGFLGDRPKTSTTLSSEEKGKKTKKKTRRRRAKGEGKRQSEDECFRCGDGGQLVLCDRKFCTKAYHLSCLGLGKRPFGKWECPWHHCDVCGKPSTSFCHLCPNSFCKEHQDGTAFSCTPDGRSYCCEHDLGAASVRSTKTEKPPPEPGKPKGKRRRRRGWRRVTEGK

[12] = human group III sPLA2 inhibitors, dose response, biochemical, QFRET, IC50 (AID 743457);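 note: green fluorescence rise as the enzyme cleaves BODIPY PC-A2 in liposomes; potency for inhibition of the enzyme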

COUP transcription factor 2, sequence (P24468 whole entry): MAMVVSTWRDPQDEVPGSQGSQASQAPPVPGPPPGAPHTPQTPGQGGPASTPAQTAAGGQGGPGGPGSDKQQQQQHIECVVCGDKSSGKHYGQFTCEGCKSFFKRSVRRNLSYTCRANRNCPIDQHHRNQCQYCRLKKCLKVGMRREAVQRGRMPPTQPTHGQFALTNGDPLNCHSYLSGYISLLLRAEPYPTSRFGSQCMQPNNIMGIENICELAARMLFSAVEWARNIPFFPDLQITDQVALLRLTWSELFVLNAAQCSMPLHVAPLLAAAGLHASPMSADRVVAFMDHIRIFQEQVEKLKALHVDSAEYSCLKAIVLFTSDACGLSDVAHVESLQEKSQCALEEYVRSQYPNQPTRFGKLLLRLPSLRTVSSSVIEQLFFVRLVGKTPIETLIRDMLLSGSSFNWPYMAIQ
Nonstructural protein 1, sequence (Q194T2 whole entry): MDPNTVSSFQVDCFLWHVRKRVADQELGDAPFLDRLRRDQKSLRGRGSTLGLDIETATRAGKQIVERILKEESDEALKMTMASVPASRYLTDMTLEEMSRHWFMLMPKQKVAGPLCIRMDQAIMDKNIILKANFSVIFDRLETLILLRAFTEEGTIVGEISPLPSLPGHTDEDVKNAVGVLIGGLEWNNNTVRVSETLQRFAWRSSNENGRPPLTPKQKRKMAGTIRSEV

Cc1nn(C)c(C)c1CN(C)S(=O)(=O)c1ccc2ccccc2c1
IC50 [1]: > 80 µM (inactive)
IC50 [2]: 12.6 µM (active)
AC50 (INS1): 1.93 µM (active)
IC50 (Galanin receptor type 3): 1.01 µM (active)
EC50 (cells): > 29.9 µM (inactive)
AC50 [3]: 0.626 µM (active)
AC50 [4]: 2.42 µM (active)
IC50 [5]: 3.25 µM (active)

CC(=O)C(=CNc1cc(-c2ccc(C)cc2)nn1-c1ccccc1)C(C)=O
AC50 [6]: 26 µM (active)

CCN(CC)S(=O)(=O)c1ccc(C(=O)OCC(=O)Nc2ccc(-c3nc4ccc(C)cc4s3)cc2)cc1
EC50 [7]: > 67.5 µM (inactive)

Cc1cc2cc(CCNC(=O)c3cccs3)c(O)nc2cc1C
AC50 [6]: 26 µM (active)

CC[n+]1ccc(/C=C/c2ccc(N(C)C)cc2)c2ccccc21
IC50 (Nonstructural protein 1): 9.07 µM (active)
CC50 [8]: 49.2 µM (active)
IC50 [9]: 36.1 µM (active)
AC50 [10]: 2.21 µM (active)
AC50 [11]: 13.4 µM (active)
IC50 [12]: 24.6 µM (inactive)
